These results are taken from PubChem BioAssay (NCI).

SMILES strings stand for the structures.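 All cell lines were grown in 96-well plates and treated with compound for 48 hours. TGI: concentration producing complete growth inhibition.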

The TGI is the concentration at which net growth stops. Read a low TGI as greater sensitivity of the cells.

Some test systems named below: UACC-257 melanoma; CAKI-1 renal; HL-60(TB) leukemia; BT-549 breast; KM12 colon; OVCAR-5 ovarian; SK-MEL-5 melanoma; NCI/ADR-RES ovarian; 786-0 renal; NCI-H522 lung.
What all share (experiment): DTP human tumour cell line panel, 48 h

Regarding `CC[C@H](C)[C@H]1NC(=O)[C@@H](NC(=O)[C@@H](CC(C)C)N(C)CC2CCCN2C(=O)C(C)=O)[C@@H](C)OC(=O)[C@H](Cc2ccc(OC)cc2)N(C)C(=O)C2CCCN2C(=O)[C@H](CC(C)C)NC(=O)[C@@H](C)C(=O)[C@H](C(C)C)OC(=O)C[C@@H]1O` (stereo not given in full), the TGI is 0.0128 µM with UACC-257 melanoma; 0.338 µM with CAKI-1 renal; 0.021 µM in the assay on HL-60(TB) leukemia; 0.0135 µM in the assay with BT-549 breast; 0.0105 µM in the assay on KM12 colon; 0.014 µM with OVCAR-5 ovarian. Also, the total growth inhibition concentration (TGI) came to 0.00843 µM in the assay with SK-MEL-5 melanoma, 0.231 µM in the assay with NCI/ADR-RES ovarian, 0.0118 µM in the assay with 786-0 renal and 0.0523 µM with NCI-H522 lung.
For `O=C(c1ccccc1)c1ccc2nc(-c3c(Cl)c(Cl)c(Cl)c(Cl)c3C(=O)N/N=C/c3ccccc3)[nH]c2c1`, the TGI is 85 µM with UACC-257 melanoma; more than 100 µM in the assay on CAKI-1 renal; 73 µM in the assay with HL-60(TB) leukemia; more than 100 µM with BT-549 breast; more than 100 µM with KM12 colon; more than 100 µM in the assay with OVCAR-5 ovarian. Further, the TGI was found to be 33.4 µM in the assay on SK-MEL-5 melanoma, 80 µM in the assay with NCI/ADR-RES ovarian, 73.7 µM in the assay on 786-0 renal and 55.3 µM in the assay on NCI-H522 lung.
Turning to `COc1ccc(N=N/C(=N/NC(=O)c2ccccc2)c2ccc(N(CCC#N)CCC#N)cc2C)cc1`, the TGI with UACC-257 melanoma, in the assay on CAKI-1 renal, with HL-60(TB) leukemia, in the assay with BT-549 breast, in the assay with KM12 colon and in the assay on OVCAR-5 ovarian was more than 100 µM each time. Moreover, the TGI is more than 100 µM in the assay with SK-MEL-5 melanoma, more than 100 µM in the assay with NCI/ADR-RES ovarian, more than 100 µM in the assay on 786-0 renal and 36.1 µM in the assay with NCI-H522 lung.
As to `O=C(OCc1ccccc1)C1(N2CN(C3(C(=O)OCc4ccccc4)CCCC3)CN(C3(C(=O)OCc4ccccc4)CCCC3)C2)CCCC1`, the total growth inhibition concentration (TGI) in the assay on UACC-257 melanoma, in the assay on CAKI-1 renal, in the assay with HL-60(TB) leukemia, in the assay with BT-549 breast, in the assay on KM12 colon and with OVCAR-5 ovarian was more than 10 µM in each case. The TGI in the assay with SK-MEL-5 melanoma, in the assay on NCI/ADR-RES ovarian, in the assay with 786-0 renal and with NCI-H522 lung was more than 10 µM throughout.
For `COc1ccc(-c2c(N)n(-c3cccc(C(=O)O)c3)c(=O)c3cc([N+](=O)[O-])ccc23)cc1`, the TGI in the assay on UACC-257 melanoma, in the assay on CAKI-1 renal, in the assay on HL-60(TB) leukemia, in the assay on BT-549 breast, with KM12 colon and with OVCAR-5 ovarian was more than 100 µM in each case. Besides, the TGI with SK-MEL-5 melanoma, in the assay on NCI/ADR-RES ovarian, with 786-0 renal and in the assay with NCI-H522 lung was more than 100 µM throughout.
As to `CN(C)Cc1cc(O)c(O)c(CN(C)C)c1`, the TGI with UACC-257 melanoma was 45.9 µM; in the assay with CAKI-1 renal it was more than 100 µM; with HL-60(TB) leukemia, 92 µM; in the assay on BT-549 breast, more than 100 µM; in the assay with KM12 colon it was more than 100 µM; in the assay with OVCAR-5 ovarian, more than 100 µM. Besides, the TGI is more than 100 µM in the assay on SK-MEL-5 melanoma, 65.9 µM with NCI/ADR-RES ovarian, more than 100 µM in the assay with 786-0 renal and more than 100 µM with NCI-H522 lung.
As for `CC(C)(C)C1(COC(=O)c2ccc(N)cc2)COC1`, the TGI in the assay with UACC-257 melanoma, with CAKI-1 renal, in the assay with HL-60(TB) leukemia, in the assay with BT-549 breast, in the assay on KM12 colon and with OVCAR-5 ovarian was more than 100 µM in each case. Moreover, the concentration for total growth inhibition (TGI) with SK-MEL-5 melanoma, with NCI/ADR-RES ovarian, in the assay on 786-0 renal and in the assay on NCI-H522 lung was more than 100 µM throughout.
As to `Oc1ccc(SCc2cc(O)c(O)c(O)c2)cc1`, the TGI in the assay on UACC-257 melanoma is more than 100 µM; with CAKI-1 renal, more than 100 µM; with HL-60(TB) leukemia, more than 100 µM; with BT-549 breast, 85.9 µM; with KM12 colon, 42.6 µM; in the assay on OVCAR-5 ovarian, 50.7 µM. For the same compound, the TGI in the assay with SK-MEL-5 melanoma is 40.7 µM; in the assay with NCI/ADR-RES ovarian, 58.5 µM; with 786-0 renal, more than 100 µM; in the assay on NCI-H522 lung, 61.4 µM.
As for `CSC1=C(C#N)C(=O)N(c2ccc(C)cc2)C(=S)C1C#N` (stereo not given), the total growth inhibition concentration (TGI) in the assay with UACC-257 melanoma, in the assay with CAKI-1 renal, in the assay on HL-60(TB) leukemia, in the assay on BT-549 breast, in the assay on KM12 colon and in the assay on OVCAR-5 ovarian was more than 100 µM throughout. Besides, the TGI with SK-MEL-5 melanoma, in the assay with NCI/ADR-RES ovarian, with 786-0 renal and in the assay on NCI-H522 lung was more than 100 µM throughout.
For the compound `COc1ccc2c(c1)n([O-])c(C#N)c(N1CCN(c3ccc([N+](=O)[O-])cc3)CC1)[n+]2=O`, the TGI with UACC-257 melanoma was more than 100 µM; with CAKI-1 renal, more than 100 µM; in the assay on HL-60(TB) leukemia, 29.1 µM; in the assay with BT-549 breast, more than 76.7 µM; in the assay on KM12 colon it was more than 79.1 µM; in the assay on OVCAR-5 ovarian it was more than 100 µM. The TGI is 19.7 µM with SK-MEL-5 melanoma, 11.8 µM with NCI/ADR-RES ovarian, more than 100 µM in the assay on 786-0 renal and 9.97 µM with NCI-H522 lung.
Take `O=C1/C(=C/c2ccccc2[N+](=O)[O-])N=C(c2ccccc2)N1C1Nc2cc3c(cc2S1)NC(N1C(=O)/C(=C/c2ccccc2[N+](=O)[O-])N=C1c1ccccc1)S3` (stereo not given): the TGI in the assay with UACC-257 melanoma is more than 100 µM; in the assay with CAKI-1 renal, more than 100 µM; in the assay on HL-60(TB) leukemia, 96.2 µM; in the assay on BT-549 breast, more than 100 µM; in the assay on KM12 colon, more than 100 µM; with OVCAR-5 ovarian, more than 100 µM. Moreover, the TGI was more than 100 µM with SK-MEL-5 melanoma, 97.4 µM with NCI/ADR-RES ovarian, 79.6 µM in the assay on 786-0 renal and 77.9 µM in the assay with NCI-H522 lung.
As for `C=C(CC[C@@H](C(=O)O)[C@H]1[C@H](O)C[C@@]2(C)C3=CC[C@@H](C(=C)C)[C@](C)(CCC(=O)O)C3=CC[C@]12C)C(C)C`, the total growth inhibition concentration (TGI) in the assay on UACC-257 melanoma is 30.6 µM; in the assay with CAKI-1 renal, 28.9 µM; in the assay with HL-60(TB) leukemia, 36 µM; with BT-549 breast it was 33 µM; in the assay on KM12 colon, 32.6 µM; in the assay with OVCAR-5 ovarian, 30.5 µM. Moreover, the TGI in the assay with SK-MEL-5 melanoma was 36.3 µM; with NCI/ADR-RES ovarian it was 42.3 µM; in the assay with 786-0 renal, 31.1 µM; in the assay with NCI-H522 lung, 38.3 µM.
